Several values for one entry are separate records, joined by “and”; a condition that tells them apart may be missing. Equal entries are not always repeated.
Experiments:
[1] = system: PD patients with constipation; test: Phase 2 trial Stage 2: bowel function under daily oral dosing (fixed dose, randomized period, wash-out); assay type: in vivo, human; details: Stage 2 fixed dose
Experimental: Following successful screening, all subjects underwent a 14-day run-in period where the degree of constipation was assessed through a validated daily log (Zinsmeister et al. 2013) establishing baseline CSBMs/week. Subjects with an average of <3 CSBMs/week proceeded to dosing.
(§1) In Stage 2, 34 patients were evaluated.
The primary efficacy outcome variable was whether or not a subject was a “success” or “failure”. This is an endpoint based on subject diary entries for the “fixed dose” period prior to the endpoint assessment defined as average complete stool frequency increase by 1 or more over baseline, or 3 or more complete spontaneous stools/week. The subject was deemed a “success” if s/he met one or more of the criteria listed above, otherwise the subject was deemed a “failure”. The primary analysis was based on all subjects with a baseline assessment and an assessment at the end of the “fixed-dose” period and was a comparison of the proportion of successes with 0.10 (the null hypothesis corresponding to no treatment effect).
The proportion of subjects for whom the drug was a success was estimated with a binomial point estimate and corresponding 95% confidence interval. A secondary analysis compared the proportions of subjects who are deemed a success at the end of the randomized fixed-dose period between those randomized to the squalamine (ENT-01) arm and those randomized to the placebo arm. A Fisher's exact test was used to compare the proportions of subjects who were deemed a success at the end of randomization period between the two randomized arms

[2] = system: PD patients with constipation; test: Safety and adverse event profile, Stage 1; assay type: in vivo, human
Source text: Tolerability limits included diarrhea or vomiting.

[3] = system: PD patients with constipation; test: Safety and adverse event profile, Stage 2; assay type: in vivo, human
Experimental: as §1

[4] = system: PD patients with constipation; test: CNS symptoms in Stage 2 (UPDRS, MMSE, PDHQ, BDI-II, sleep diary); assay type: in vivo, human; details: for hallucinations and delusions improved or disappeared during treatment: 6 patients with hallucinations or delusions at baseline
Source text: (5) Sleep Diary (participants completed a sleep diary on a daily basis throughout the study. The diaries included time into bed and estimated time to sleep as well as wake time and duration during the night.);
(8) Beck Depression Inventory (BDI-II);
(9) Unified Parkinson's Disease Rating Scale (UPDRS), which consists of 42 items in four subscales (Part I=Non-Motor Aspects of Experiences of Daily Living (nM-EDL) (1.1 cognitive impairment, 1.2 hallucinations and psychosis, 1.3 depressed mood, Part II=Motor Aspects of Experiences of Daily Living (M-EDL), Part III=Motor Examination, and Part IV=Motor Complications;
(10) Mini Mental State Examination (MMSE);
(12) The University of Miami Parkinson's Disease Hallucinations Questionnaire (UM-PDHQ);
Exploratory end-points, in addition to constipation, included for example, (i) depression assessed using the Beck Depression Inventory (BDI-II) (Steer et al. 2000) and Unified Parkinson's Disease Rating Scale (UPDRS); (ii) cognition assessed using the Mini Mental State Examination (MMSE) (Palsteia et al. 2018), Unified Parkinson's Disease Rating Scale (UPDRS), and Trail Making Test (TMT); (iii) sleep and REM-behavior disorder (RBD) using a daily sleep diary, I-Button Temperature Assessment, a REM sleep behavior disorder (RBD) questionnaire (RBDQ) (Stiasny-Kolster et al. 2007), and the UPDRS; (iv) hallucinations assessed using the PD hallucinations questionnaire (PDHQ) (Papapetropoulos et al. 2008), the UPDRS, and direct questioning; (v) fatigue using the Parkinson's Disease Fatigue Scale (PFS-16) and the UPDRS; (vi) motor functions using the UPDRS; and (vii) non-motor functions using the UPDRS.
Assessments were made at baseline and at the end of the fixed dose and washout periods. Circadian system status was evaluated by continuously monitoring wrist skin temperature (Thermochron iButton DS1921H; Maxim, Dallas) following published procedures (Sarabia et al. 2008).
An exploratory analysis was done with respect to the sleep data, the body temperature data, mood, fatigue, hallucinations, cognition and other motor and non-motor symptoms of PD. Continuous measurements within a subject were compared with a paired t-test and continuous measurements between subject groups were compared with a two-group t-test. Categorical data were compared with a chi-squared test or a Fisher's exact test if the expected cell counts are too small for a chi-squared test.

[5] = Preclinical oral bioavailability and intestinal absorption in rats; assay type: in vivo; details: oral radioactive ENT-01, portal blood concentrations
Solubility in water = assay type: physicochemical; details: phosphate salt

For CC(C)[C@@H](CC[C@@H](C)[C@H]1CC[C@H]2[C@@H]3[C@H](O)C[C@H]4C[C@@H](NCCCNCCCCN)CC[C@]4(C)[C@H]3CC[C@]12C)OS(=O)(=O)O (single isomer, unassigned) [squalamine (ENT-01), squalamine], the “CSBM, weekly average (mean, SD)” value ([1]; n=34, baseline 1.2 (0.90)) was 3.8 /week, the “SBM, weekly average (mean, SD)” value ([1]; n=34, baseline 2.6 (1.45)) was 4.5 /week and the “Suppository use / rescue medication, weekly average (mean, SD)” value ([1]; baseline 1.8 (1.92)) was 0.3 /week. The “Consistency, Bristol stool scale (mean, SD)” value ([1]; scale 1-7, baseline 2.7 (1.20), listed as aminosterol) was 4.1, the “Ease of passage, Ease of evacuation scale (mean, SD)” value ([1]; scale 1-7, baseline 3.2 (0.73), listed as aminosterol) was 3.7 and the “diarrhea, patients” value ([2]; Stage 1, 4/10 patients) was 40%. The “nausea, patients” value ([2]; Stage 1, 4/10 patients) was 40%, the “AEs confined to the GI tract” value ([2]; Stage 1, share of AEs) was 88% and the “patients who withdrew during dosing because of diarrhea” value ([3]; Stage 2) was 2 patients. For the same compound, the “diarrhea, patients” value ([3]; Stage 2, 15/34 patients) was 44%, the “Abdominal pain, Mild” value ([3]; Stage 2, 34 dosed) was 4 n and the “Abdominal pain, Moderate” value ([3]; Stage 2, 34 dosed) was 2 n. For the same compound, the “Blood in urine, Mild” value ([3]; Stage 2, 34 dosed) was 0 n, the “Blood in urine, Moderate” value ([3]; Stage 2, 34 dosed) was 0 n and the “Diarrhea, Mild” value ([3]; Stage 2, 34 dosed) was 12 n. The “Diarrhea, Moderate” value ([3]; Stage 2, 34 dosed) was 2 n, the “Diarrhea, Severe” value ([3]; Stage 2, 34 dosed) was 1 n and the “Difficulty falling asleep, Mild” value ([3]; Stage 2, 34 dosed) was 1 n. For the same compound, the “Difficulty falling asleep, Moderate” value ([3]; Stage 2, 34 dosed) was 0 n, the “Dizziness, Mild” value ([3]; Stage 2, 34 dosed) was 7 n and the “Dizziness, Moderate” value ([3]; Stage 2, 34 dosed) was 1 n. For the same compound, the “Eye infection, Mild” value ([3]; Stage 2, 34 dosed) was 1 n, the “Eye infection, Moderate” value ([3]; Stage 2, 34 dosed) was 0 n and the “Flatulence, Mild” value ([3]; Stage 2, 34 dosed) was 1 n. The “Flatulence, Moderate” value ([3]; Stage 2, 34 dosed) was 0 n, the “Headache, Mild” value ([3]; Stage 2, 34 dosed) was 3 n and the “Headache, Moderate” value ([3]; Stage 2, 34 dosed) was 0 n. For the same compound, the “Increased urinary frequency, Mild” value ([3]; Stage 2, 34 dosed) was 2 n, the “Increased urinary frequency, Moderate” value ([3]; Stage 2, 34 dosed) was 0 n and the “Loss of appetite, Mild” value ([3]; Stage 2, 34 dosed) was 0 n. The “Loss of appetite, Moderate” value ([3]; Stage 2, 34 dosed) was 0 n, the “Nausea, Mild” value ([3]; Stage 2, 34 dosed) was 18 n and the “Nausea, Moderate” value ([3]; Stage 2, 34 dosed) was 1 n. For the same compound, the “Skin lesions-rash, Mild” value ([3]; Stage 2, 34 dosed) was 3 n, the “Skin lesions-rash, Moderate” value ([3]; Stage 2, 34 dosed) was 0 n and the “Urinary retention, Mild” value ([3]; Stage 2, 34 dosed) was 1 n. The “Urinary retention, Moderate” value ([3]; Stage 2, 34 dosed) was 0 n, the “Urinary tract infection, Mild” value ([3]; Stage 2, 34 dosed) was 1 n and the “Urinary tract infection, Moderate” value ([3]; Stage 2, 34 dosed) was 2 n. For the same compound, the “Vomiting, Mild” value ([3]; Stage 2, 34 dosed) was 2 n, the “Vomiting, Moderate” value ([3]; Stage 2, 34 dosed) was 0 n and the “Worsening acid reflux, Mild” value ([3]; Stage 2, 34 dosed) was 4 n. The “Worsening acid reflux, Moderate” value ([3]; Stage 2, 34 dosed) was 0 n, the “Worsening hemorrhoid, Mild” value ([3]; Stage 2, 34 dosed) was 1 n and the “Worsening hemorrhoid, Moderate” value ([3]; Stage 2, 34 dosed) was 0 n. For the same compound, the “AEs confined to the GI tract” value ([3]; Stage 2, share of AEs) was 63%, the “Lower GI bleed, Severe” value ([3]; Stage 2, Unrelated to ENT-01) was 1 n and the “lower GI bleed (Serious adverse event, SAE)” value ([3]; during the withdrawal period, considered unrelated to study medication) was “One patient”. For the same compound, the “hallucinations and delusions improved or disappeared during treatment” value [4] was 5 of 6 and five, the “hallucinations and delusions improved or disappeared during treatment” value ([4]; listed as aminosterol) was “five and 5 of 6” and the “improvement of arm or leg thrashing frequency” value ([4]; baseline 2.2 episodes/week to 0 at maximal dose) was 100%. The “total sleep time versus baseline” value ([4]; beyond 125 mg) was “consistently higher than baseline”, the “hallucinations/delusions did not return following discontinuation” value ([4]; in 1 patient) was 4 weeks and the “hallucinations/delusions did not return following discontinuation” value ([4]; in another patient) was 2 weeks. For the same compound, the “time free of hallucinations following cessation of dosing” value ([4]; one patient) was 1 month, the “absorption from the intestine” value [5] was “low” and the solubility in water (Solubility in water; neutral pH) was “weakly soluble”. For the same compound, the solubility in water (Solubility in water; pH<3.5 (the pH of gastric fluid)) was “readily dissolves”.

— patent US20200038415A1, “AMINOSTEROL COMPOSITIONS AND METHODS OF USING THE SAME FOR TREATING ERECTILE DYSFUNCTION” (Enterin, Inc., priority 2018, published 2020)
